Experimental data as given in PMC11814083, “Effect of pH and buffer on substrate binding and catalysis by cis-aconitate decarboxylase” (Scientific Reports, 2025).

How the values were obtained:
Assay in all cases: HPLC of itaconate, UV […] nm, Michaelis-Menten fit
Type in all cases: biochemical
hACOD1 = molecular target: T1, hACOD1 (Homo sapiens, UniProt A6NK06); conditions: pH 7.0, 37 °C, 50 mM MOPS, 100 mM NaCl; 95% confidence interval in brackets; other pH 5.5-8.25 also in table
T1 construct: gene ACOD1; aa 4-461, recombinant from E. coli, clone CAD29, purified; homodimer
T1 sequence (A6NK06 4-461): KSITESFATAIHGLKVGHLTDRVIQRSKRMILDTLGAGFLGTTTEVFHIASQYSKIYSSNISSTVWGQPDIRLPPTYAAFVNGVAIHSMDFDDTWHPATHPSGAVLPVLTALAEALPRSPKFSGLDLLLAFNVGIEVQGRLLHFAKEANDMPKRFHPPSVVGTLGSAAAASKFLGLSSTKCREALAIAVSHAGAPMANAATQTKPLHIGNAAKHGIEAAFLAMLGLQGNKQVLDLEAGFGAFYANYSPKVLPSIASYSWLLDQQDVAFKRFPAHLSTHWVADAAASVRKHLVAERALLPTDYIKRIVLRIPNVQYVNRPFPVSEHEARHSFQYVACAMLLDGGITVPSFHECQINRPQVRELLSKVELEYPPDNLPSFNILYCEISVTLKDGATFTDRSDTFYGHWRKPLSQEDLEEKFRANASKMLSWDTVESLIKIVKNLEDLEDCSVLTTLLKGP

aCAD = molecular target: T2, aCAD (Aspergillus terreus, UniProt B3IUN8); conditions: pH 7.0, 37 °C, 50 mM MOPS, 100 mM NaCl; 95% confidence interval in brackets; other pH 5.5-7.5 also in table
T2 construct: gene cad1; aa 12-490, recombinant from E. coli, clone CAD16 (by order of listing), purified; homodimer
T2 sequence (B3IUN8 12-490): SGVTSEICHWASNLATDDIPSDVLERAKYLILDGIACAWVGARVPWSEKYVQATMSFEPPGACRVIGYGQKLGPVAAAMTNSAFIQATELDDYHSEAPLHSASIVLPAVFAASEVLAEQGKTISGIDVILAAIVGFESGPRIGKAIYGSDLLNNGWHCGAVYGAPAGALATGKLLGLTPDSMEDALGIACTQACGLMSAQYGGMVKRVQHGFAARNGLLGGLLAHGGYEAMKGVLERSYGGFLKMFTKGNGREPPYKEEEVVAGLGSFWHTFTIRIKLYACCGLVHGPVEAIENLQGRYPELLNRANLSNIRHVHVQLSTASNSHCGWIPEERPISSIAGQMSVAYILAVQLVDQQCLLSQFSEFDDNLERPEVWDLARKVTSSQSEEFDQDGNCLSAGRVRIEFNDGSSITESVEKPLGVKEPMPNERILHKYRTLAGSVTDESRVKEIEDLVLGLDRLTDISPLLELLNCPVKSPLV

mACOD1 = molecular target: T3, mACOD1 (Mus musculus, UniProt P54987); conditions: pH 7.0, 37 °C, 50 mM MOPS, 100 mM NaCl; 95% confidence interval in brackets; other pH 5.5-8.25 also in table
T3 construct: gene Acod1; aa 4-461, recombinant from E. coli, clone CAD39 (by order of listing), purified; homodimer
T3 sequence (P54987 4-461): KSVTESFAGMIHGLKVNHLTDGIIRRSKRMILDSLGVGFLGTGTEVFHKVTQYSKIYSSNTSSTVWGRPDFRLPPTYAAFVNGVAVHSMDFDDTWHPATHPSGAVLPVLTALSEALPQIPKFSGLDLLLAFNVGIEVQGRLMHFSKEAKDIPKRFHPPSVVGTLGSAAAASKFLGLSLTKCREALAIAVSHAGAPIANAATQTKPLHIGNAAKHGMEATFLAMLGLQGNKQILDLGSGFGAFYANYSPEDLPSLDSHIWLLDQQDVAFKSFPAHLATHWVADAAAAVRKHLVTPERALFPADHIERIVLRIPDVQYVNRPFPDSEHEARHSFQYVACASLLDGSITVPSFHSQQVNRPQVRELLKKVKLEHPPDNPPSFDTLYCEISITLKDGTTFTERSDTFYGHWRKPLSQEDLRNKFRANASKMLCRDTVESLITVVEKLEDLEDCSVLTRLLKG

O=C(O)/C=C(/CC(=O)O)C(=O)O [cis-aconitate]
KM (95% confidence interval) (mM) / hACOD1 / kcat (95% confidence interval) (s^-1) / kcat/KM (M^-1 s^-1) (hACOD1): 0.23 (0.21-0.26) mM
KM (95% confidence interval) (mM) / aCAD / kcat (95% confidence interval) (s^-1) / kcat/KM (M^-1 s^-1) (aCAD): 2.1 (1.9-2.5) mM
Michaelis constant (KM) (mACOD1): 0.17 (0.15-0.19) mM
